{"source": "paper PMC3816002", "about": "(Biochimica et biophysica acta, 2013)", "target": "T1, CIITA (Homo sapiens, UniProt P33076, G420A/G425A/K426E)", "T1 sequence (P33076 1-1130 G420A/G425A/K426E)": "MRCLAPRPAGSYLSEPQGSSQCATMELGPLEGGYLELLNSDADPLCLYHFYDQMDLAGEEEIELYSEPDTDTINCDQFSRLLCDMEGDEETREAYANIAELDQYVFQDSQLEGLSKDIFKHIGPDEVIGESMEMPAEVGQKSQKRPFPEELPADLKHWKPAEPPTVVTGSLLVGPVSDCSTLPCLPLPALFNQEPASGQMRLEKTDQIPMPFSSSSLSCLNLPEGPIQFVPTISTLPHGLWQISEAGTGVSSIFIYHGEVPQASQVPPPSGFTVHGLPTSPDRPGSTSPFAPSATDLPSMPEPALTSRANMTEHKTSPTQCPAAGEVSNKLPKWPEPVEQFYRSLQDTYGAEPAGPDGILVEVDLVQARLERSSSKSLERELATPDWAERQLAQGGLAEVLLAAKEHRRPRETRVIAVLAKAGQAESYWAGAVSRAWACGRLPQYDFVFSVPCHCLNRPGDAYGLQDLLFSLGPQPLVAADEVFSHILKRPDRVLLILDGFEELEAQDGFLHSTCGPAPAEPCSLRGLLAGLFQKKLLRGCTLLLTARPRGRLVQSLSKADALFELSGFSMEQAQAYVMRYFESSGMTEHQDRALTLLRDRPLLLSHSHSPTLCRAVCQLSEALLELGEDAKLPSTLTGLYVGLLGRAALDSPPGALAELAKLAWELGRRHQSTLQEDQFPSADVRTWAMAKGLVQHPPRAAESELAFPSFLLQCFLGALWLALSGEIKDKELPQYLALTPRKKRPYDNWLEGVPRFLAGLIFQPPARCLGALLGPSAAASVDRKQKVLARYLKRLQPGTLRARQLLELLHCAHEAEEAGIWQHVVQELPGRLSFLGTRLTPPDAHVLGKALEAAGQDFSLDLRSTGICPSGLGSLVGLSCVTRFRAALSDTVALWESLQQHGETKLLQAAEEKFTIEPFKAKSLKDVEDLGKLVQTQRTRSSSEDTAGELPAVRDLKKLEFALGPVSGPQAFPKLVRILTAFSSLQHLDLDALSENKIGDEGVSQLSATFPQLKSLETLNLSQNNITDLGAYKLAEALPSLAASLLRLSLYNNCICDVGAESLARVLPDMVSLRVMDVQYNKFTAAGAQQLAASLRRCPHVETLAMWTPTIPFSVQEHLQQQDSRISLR", "experiment": "[…] autophosphorylation kinase assay, SDS-PAGE, phosphorimager", "format": "biochemical", "conditions": "labelled compound; 5 mM MnCl2, 5 mM MgCl2, pH 7.5, 30 °C", "data": [{"smiles": "Nc1ncnc2c1ncn2[C@@H]1O[C@H](COP(=O)(O)OP(=O)(O)OP(=O)(O)O)[C@@H](O)[C@H]1O", "note": "[ATP]", "values": [{"measurement": "32P autophosphorylation kinase assay, SDS-PAGE, phosphorimager", "value": "No loss of kinase activity was detected in the putative ATP binding site mutant"}]}]}
